Measured values: patent publication US20110015162A1, “15,16-Methylene-17-hydroxy-19-nor-21-carboxylic acid-steroid Y-lactone derivative, use thereof and medicinal products containing the derivative” (Bayer Schering Pharma Aktiengesellschaft, priority 2007, published 2011)

Experiments:
progesterone receptor = molecular target: T1, progesterone receptor (Homo sapiens, UniProt P06401); assay: Progesterone receptor binding test; settings: CF 1 = affinity of progesterone; CF >1 lower affinity, <1 higher affinity
T1 construct: made in house; host or cells: Hi5 insect cells (cytosol)
T1 sequence (P06401 1-933): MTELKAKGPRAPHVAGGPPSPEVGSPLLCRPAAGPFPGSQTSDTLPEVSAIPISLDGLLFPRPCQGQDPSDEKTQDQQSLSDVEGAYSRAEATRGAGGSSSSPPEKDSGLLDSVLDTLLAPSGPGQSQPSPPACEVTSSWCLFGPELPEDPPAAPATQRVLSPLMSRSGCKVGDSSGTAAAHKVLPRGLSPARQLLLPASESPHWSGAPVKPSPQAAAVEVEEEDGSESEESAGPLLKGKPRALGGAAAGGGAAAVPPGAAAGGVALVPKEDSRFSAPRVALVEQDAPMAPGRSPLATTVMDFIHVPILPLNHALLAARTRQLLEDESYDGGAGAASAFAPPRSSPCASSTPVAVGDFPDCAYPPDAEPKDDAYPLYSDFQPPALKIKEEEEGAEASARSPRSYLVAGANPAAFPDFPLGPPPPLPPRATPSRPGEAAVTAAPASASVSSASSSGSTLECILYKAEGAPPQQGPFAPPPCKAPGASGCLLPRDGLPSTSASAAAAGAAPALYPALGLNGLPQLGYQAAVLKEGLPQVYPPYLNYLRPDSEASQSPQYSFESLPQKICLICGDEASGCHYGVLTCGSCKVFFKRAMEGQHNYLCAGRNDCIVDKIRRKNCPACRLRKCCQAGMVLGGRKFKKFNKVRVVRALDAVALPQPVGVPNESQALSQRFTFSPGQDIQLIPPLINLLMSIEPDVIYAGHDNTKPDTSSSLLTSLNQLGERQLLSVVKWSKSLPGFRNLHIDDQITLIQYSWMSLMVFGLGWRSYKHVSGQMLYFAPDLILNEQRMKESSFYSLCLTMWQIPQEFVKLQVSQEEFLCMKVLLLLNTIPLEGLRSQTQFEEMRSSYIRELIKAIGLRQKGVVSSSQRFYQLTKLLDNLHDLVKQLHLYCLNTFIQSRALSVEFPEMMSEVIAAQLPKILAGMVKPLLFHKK
Method: 1. Progesterone Receptor Binding Test:
(§1) Using cytosol from progesterone receptor-expressing insect cells (Hi5), competitive binding to the progesterone receptor was determined from the ability to displace ^3H-progesterone as reference substance from the receptor.

[1] = molecular target: T2, mineralocorticoid receptor (Homo sapiens, UniProt P08235); assay: Mineralocorticoid receptor binding test; set-up: made in house; host or cells: Hi5 insect cells (cytosol); settings: reference substance 3H-aldosterone, cytosol from MR-expressing insect cells (Hi5)
T2 sequence (P08235 1-984): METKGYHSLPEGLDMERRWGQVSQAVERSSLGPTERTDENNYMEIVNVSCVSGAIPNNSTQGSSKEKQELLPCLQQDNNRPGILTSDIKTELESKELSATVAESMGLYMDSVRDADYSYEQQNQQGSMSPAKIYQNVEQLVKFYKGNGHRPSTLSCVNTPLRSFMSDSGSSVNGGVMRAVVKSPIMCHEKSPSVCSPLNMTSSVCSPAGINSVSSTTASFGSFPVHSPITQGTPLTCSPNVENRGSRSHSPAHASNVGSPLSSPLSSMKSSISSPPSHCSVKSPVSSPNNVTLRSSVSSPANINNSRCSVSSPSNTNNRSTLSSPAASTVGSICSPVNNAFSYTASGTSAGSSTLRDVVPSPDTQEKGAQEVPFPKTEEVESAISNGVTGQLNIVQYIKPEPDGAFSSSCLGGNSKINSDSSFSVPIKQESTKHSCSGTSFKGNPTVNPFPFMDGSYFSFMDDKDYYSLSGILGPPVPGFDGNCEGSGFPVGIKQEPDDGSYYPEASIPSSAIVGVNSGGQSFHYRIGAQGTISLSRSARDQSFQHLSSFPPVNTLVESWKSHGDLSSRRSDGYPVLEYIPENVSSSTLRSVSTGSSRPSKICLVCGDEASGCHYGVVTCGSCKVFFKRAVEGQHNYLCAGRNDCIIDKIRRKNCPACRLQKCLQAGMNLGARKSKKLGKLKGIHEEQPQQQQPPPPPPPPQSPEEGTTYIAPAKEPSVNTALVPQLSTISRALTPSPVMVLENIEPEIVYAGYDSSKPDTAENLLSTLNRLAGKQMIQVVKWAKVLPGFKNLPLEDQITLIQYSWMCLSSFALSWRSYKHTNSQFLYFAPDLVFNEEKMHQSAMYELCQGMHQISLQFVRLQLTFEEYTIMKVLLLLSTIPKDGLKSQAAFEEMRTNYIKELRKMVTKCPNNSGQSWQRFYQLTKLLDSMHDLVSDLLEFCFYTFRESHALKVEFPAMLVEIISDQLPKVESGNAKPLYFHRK
Method: as §1
2. Mineralocorticoid Receptor Binding Test:
The test was carried out as in 1, with the following modifications: cytosol from mineralocorticoid receptor-expressing insect cells (Hi5) was used, and the reference substance was ^3H-aldosterone.

[2] = molecular target: T2, mineralocorticoid receptor; assay: Antimineralocorticoid action by transactivation test (MDCK reporter cells); format: cell-based; set-up: expressed in transfected cells; host or cells: MDCK cells;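 on Emax: percent inhibition of the aldosterone-stimulated reporter signal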
Method: The test compounds were added eight hours later, and the cells were incubated with the compounds for 16 hours. The tests were carried out in triplicate. At the end of incubation the medium containing the effector was removed and replaced with lysis buffer. After luciferase assay substrate (Promega, #E1501) had been added, the 96-well plates were then put in a microplate luminometer (Pherastar, BMG Labtech), and the luminescence was measured. The IC50 values were evaluated using software for calculating dose-effect relations.
5. Determination of Antimineralocorticoid Action by Means of Transactivation Tests:
The antimineralocorticoid activity of the test substances was determined as for the transactivation tests described above.
The following modifications were undertaken: In this case reporter cell lines were used (MDCK cells) that express the human mineralocorticoid receptor, and transiently contain a reporter construct that contains luciferase under the control of a steroid hormone-responsive promoter.

[3] = molecular target: T3, fusion protein from the PR-ligand-binding domain and a Gal4-transactivation domain (Homo sapiens, UniProt P06401); assay: Progestational action by transactivation test (CHO K1 reporter cells); format: cell-based; settings: CHO-K1, 16 h, read-out: Progesterone receptor Agonism efficacy
T3 construct: expressed in transfected cells; host or cells: CHO K1 cells, stably transfected
T3 sequence (P04386 1-147 partner limits assumed, one chain of several): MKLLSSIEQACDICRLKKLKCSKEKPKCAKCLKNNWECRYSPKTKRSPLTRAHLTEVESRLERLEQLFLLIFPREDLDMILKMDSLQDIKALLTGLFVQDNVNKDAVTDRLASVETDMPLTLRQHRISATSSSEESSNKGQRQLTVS
Method: 4. Determination of Progestational Action by Means of Transactivation Tests:
The culture medium used for culture of the cells used for the assay was DMEM (Dulbecco's Modified Eagle Medium: […] glucose; PAA, #E15-009) with 10% FCS (Biochrom, S0115, batch #615B), 4 mM L-glutamine, 1% penicillin/streptomycin, 1 mg/ml G418 and 0.5 μg/ml puromycin.
Reporter cell lines (CHO K1 cells stably transfected with a fusion protein from the PR-ligand-binding domain and a Gal4-transactivation domain and a reporter construct, which contained luciferase under the control of a Gal4-responsive promoter) were seeded at a density of 4×10^4 cells per well in white, opaque tissue culture plates each with 96 wells (PerkinElmer, #P12-106-017) and kept in culture medium with 3% DCC-FCS (serum treated with activated charcoal to remove interfering components contained in the serum). The test compounds were added eight hours later, and the cells were incubated with the compounds for 16 hours. The tests were carried out in triplicate. At the end of incubation the medium containing the effector was removed and replaced with lysis buffer. After luciferase assay substrate (Promega, #E1501) had been added, the 96-well plates were then put in a microplate luminometer (Pherastar, BMG Labtech), and the luminescence was measured. The IC50 values were evaluated using software for calculating dose-effect relations.

Question: With `C[C@]12CCC(=O)C=C1[C@@H]1C[C@@H]1[C@H]1[C@@H]3[C@@H]4C[C@@H]4[C@@]4(CCC(=O)O4)[C@@]3(C)CC[C@@H]12` [A, 6β, 7β;15β,16β-dimethylene-3-oxo-17-pregn-4-ene-21,17β-carbolactone, reference compound] as the compound, how does the “Progesterone receptor (PR) Competition factor” value (progesterone receptor) read?
Answer: 2.7

Question: And the “Mineralocorticoid receptor (MR) Competition factor” value [1]?
Answer: 0.5

Question: And the IC50 ([2]; MDCK cells, with 1 nM aldosterone, read-out: Mineralocorticoid receptor Antagonism IC50)?
Answer: 3.3 nM

Question: What about the Emax ([2]; MDCK, read-out: Mineralocorticoid receptor Antagonism efficacy) of the same compound?
Answer: 64.1%

Question: What about the Emax [3] of the same compound?
Answer: 72.2%
